Assay results published in patent US6964870B2, “Enhanced selection of genetically modified pine embryogenic tissue” (MeadWestvaco Corporation, priority 2000, dated 2005).

How the values were obtained:
Assay type in all cases: cell-based
[1] = system: precotyledonary embryos of loblolly pine or hybrid cell lines; assay: Bombardment of precotyledonary embryos on preparation medium with high ABA (Example 3); details: preparation medium for bombardment with 125 mg/L ABA; lines of cross 7-56×9-6 and others incl. interspecific hybrids
Experimental: For transformation in this example, the tissue was bombarded using conditions described in Example 1 except that the tissue had been plated on MSG2 medium containing 125 mg/L ABA and 70 g/L PEG 3-8 weeks previously, instead of on medium DCR3 one day previously, so that the experimental treatment consisted of precotyledonary embryos at various stages of development. Following DNA transfer, visible pre-stage 3 embryos were dissected from the bombarded tissues and placed individually onto DCR2 as described above for secondary proliferation.
Following a period of one to 14 days, when a preponderance of pre-stage 3 embryos dissected from the bombarded tissue could be seen to be beginning to proliferate secondary embryogenic cell masses, samples to be assayed for transformation were transferred to a selection medium identical to DCR2 except that it contained […] to initiate secondary embryogenesis. Samples of isolated pre-stage 3 embryos from each line and the secondary tissue proliferating from them were also cultured on DCR2 maintenance media without selection agent to observe any effect of the bombardment treatment on proliferation. These cultures were transferred to fresh maintenance media every three weeks. Proliferation of these non-selected controls at nine weeks after dissection is recorded in Table 4. […]

[2] = system: cell lines that are progeny of the elite P. taeda line 7-56; assay: Biolistic transformation, ABA in recovery and selection media (Example 2)
Experimental: Loblolly pine cell lines were used which had been grown and maintained as described in Example 1 above, and prepared for biolistic transformation as described in Example 1 above. In this example, only cell lines that are progeny of the elite P. taeda line 7-56 were used. Following bombardment the support membranes bearing the bombarded embryogenic cells were transferred to DCR2 maintenance media, either with or without the addition of 10 mg/l ABA for one week. Following this the support membranes bearing the bombarded embryogenic cells were placed on plates containing gelled DCR selection medium with 10 mg/l abscisic acid (ABA), and cultured for three days, so that all cells were exposed to 10 mg/l ABA in the selection medium for the first three days of selection. Following this the support membranes bearing the bombarded embryogenic cells were evenly divided among gelled media containing 5, 10, or 20 mg/l ABA for a period of two weeks. Following this, the support membranes bearing the bombarded embryogenic cells were evenly divided among gelled media containing 0, 5, 10, or 20 mg/l ABA for the remaining selection period, and transferred every three weeks to fresh selection media of the same composition.
The cells were also checked for the presence of sequences by PCR amplification using primers specific for both the uidA and nptII transgenes, techniques well known to those skilled in the art of plant transformation.

[3] = system: loblolly pine cell lines or hybrid cell lines; assay: ABA in culture media during and after co-cultivation with Agrobacterium, all lines (Example 4)
From the text: Seven loblolly pine cell lines or hybrid cell lines from seven widely diverse genetic backgrounds were used in this experiment. To prepare for gene transfer using Agrobacterium, fabric supports were sterilized by autoclaving and placed in a sterile Buchner funnel, and one to five milliliters of embryogenic suspension was pipetted onto each support such that the embryogenic tissue was evenly distributed over its surface. Following this the liquid medium was suctioned from the tissues and each support bearing the embryogenic tissue was placed on gelled medium for inoculation by Agrobacterium. In this case the medium used was the same as the preparation medium described in Example 1 above, except that the medium, used here for preparation and co-cultivation of the cells, contained ABA at 0, 10, or 30 mg/L as an experimental condition. Genes were then introduced into the plant material by co-cultivation with Agrobacterium(Wenck et al. 1999). Specifically, gene constructs containing a reporter gene and a selectable marker were introduced into Agrobacterium tumefaciens strain EHA105 with the virulence-enhancing plasmid pTOK47 (Wenck et al. 1999), by techniques well known to those skilled in the art, and virulence was then induced with administration of acetosyringone by commonly used techniques, well known to those skilled in the art, whereupon the induced Agrobacterium was dripped over the plant material and these were co-cultivated in the dark at 23°±2° C. for approximately 24-72 hours. Those skilled in the art recognize that many different gene constructs, plasmids, strains, media, and co-cultivation times and protocols would be suitable for use in the present method.
Supports bearing approximately 0.1 g of embryogenic tissue were divided onto recovery media (having the same formulation as the maintenance medium except for the addition of 400 mg/L TIMENTIN® antibiotic) either containing or lacking ABA. […] Concentrations of ABA used in all these media were 0, 10, and 30 mg/l.
Cells were maintained on the selection media, with transfer of the polyester support membranes to fresh selection media of the same composition, every two weeks for a total of eight weeks of selection. Cells from actively growing sublines from selection were examined using stereomicroscopes for the expression of the visual marker gene uidA at the conclusion of the selection period. All of the sublines capable of active growth on selection medium were seen to express levels of the visual marker gene product that enabled them to be readily distinguished from non-selected cells. This continuing expression of the transgenes after at least twelve weeks following bombardment confirmed the integration of the transgenes in these sublines. […]

[4] = system: embryogenic lines of crosses with P. taeda selection 7-56; assay: Recovery of transformants from elite crosses with ABA in selection media (Agrobacterium and bombardment experiments)

With `CC1=CC(=O)CC(C)(C)[C@@]1(O)/C=C/C(C)=C\C(=O)O` [ABA, abscisic acid] the frequency of transformants [1] was “surprisingly high frequency of transformants”, the “number of transformants detected” value ([2]; 10 mg/L ABA in the recovery media) was “did not significantly increase the number of transformants detected” and the “transformants recovered after ten weeks of selection” value ([2]; 5, 10, or 20 mg/l ABA present for the latter 9 weeks of selection) was “Transformants were recovered”. For the same molecule, the “transformants recovered after ten weeks of selection” value ([2]; ABA concentration increased to 20 mg/l after the first transfer on selection media) was “the largest number of transformants were recovered”, the “necrotic foci in somatic embryogenic masses” value ([3]; 10 or 30 mg/L ABA during and after co-cultivation with Agrobacterium vs media without ABA, all lines) was “fewer necrotic foci” and the “effect on observation of transformants” value ([3]; 10 or 30 mg/l ABA in the preparation medium) was “neutral or beneficial”. The “doubling of somatic embryogenic masses” value ([3]; ABA in recovery medium after co-cultivation with Agrobacterium vs no ABA, certain P. taeda lines and hybrids) was “able to double more rapidly”, the “effect on observation of transformants” value ([3]; ABA in the recovery medium) was “similarly neutral or beneficial” and the “lines attempted from which transformants recovered” value ([4]; cross 7-56×9-6, ABA in the selection media) was “more than 80%”. For the same molecule, the “lines attempted from which transformants recovered” value ([4]; crosses with elite P. taeda selection 7-56 as a parent, ABA in selection media, media containing 5-30 mg/L ABA) was “more than 80%”.
